The source of these data is patent US7238718B2, “Method for treating myolytic disease and method for screening antimyolytic agent” (Osaka Bioscience Institute, priority 2003, dated 2007).

The subject of experiment [1] is myolysis induced by bupivacaine hydrochloride in gastrocnemius. The experiment is described as follows: Quantification of myolysis region by Evans' Blue extraction and absorbance (630 nm). It is filed as in vivo, C57BL/6 mice.
Procedure: Quantification of the degenerated region by necrosis shown in Example 1 was carried out. Evans' Blue was extracted from the freeze-dried gastrocnemius by formamide. After the extraction, absorbance of Evans' Blue (630 nm) was measured calorimetrically.
Experiment [2] deals with myolysis in mdx mice. The experiment is described as follows: Therapeutic effect in mdx mice (Duchenne's muscular dystrophy model), Evans' Blue retention. Conditions: continuously administered for two weeks; compared with vehicle group; FIG. 5. It is filed as in vivo. On the procedure: HQL-79 was continuously administered for two weeks to mdx mice which is a model animal for Duchenne's muscular dystrophy (Bogdanovich S, et al., Nature, Nov. 28, 2002, 420(6914):418–21) […] and the effect of the HPGDS inhibitor to myolysis was tested. After two weeks from the initiation of the administration, an Evans' Blue dye solution (1.0 w/v %) was intravenously injected from tail vein. After one hour therefrom, the mice were killed by excessive anaesthetization and perfused with physiological saline solution, the gastrocnemius was excised and quickly frozen. The retention of Evans' Blue in the muscle was observed under a fluorescent microscope. Necrotic lesion was enhanced by means of fluorescence. In the mice to which HQL-79 was administered, retention of the dye (grayish white region) which is an index for myolysis decreased as compared with the group to which a vehicle was administered (refer to FIG. 5).

Experiment [3] deals with myolysis induced by bupivacaine hydrochloride in gastrocnemius. The experiment is described as follows: Nonoperative observation of necrotic lesion using X-ray CT with iopamidol. Format: in vivo, mice. To be noted: one day after bupivacaine hydrochloride; 15 min after iopamidol i.v.; FIG. 3. How it is done: Degenerated region was observed by a nonoperative manner using X-ray CT for experimental animals. N,N′-Bis[2-hydroxy-1-(hydroxymethyl)ethyl]-5-[(2S)-2-hydroxypropanoylamino]-2,4,6-triiodoisophthalamide (iopamidol), an X-ray contrast agent for urinary blood vessels, was intravenously injected from tail vein of mice after one day from the treatment with bupivacaine hydrochloride and a laminogram by an X-ray CT after 15 minutes is shown. A region with specific CT values which is noted in the laminogram of gastrocnemius decreased by administration of HQL-79. In the region where retention of the contrast agent is recognized, bleeding and edema as a result of muscular destruction are noted (refer to FIG. 3).

For experiment [4] the test system is unchanged. Kind of experiment: Myolysis model induced by bupivacaine hydrochloride, Evans' Blue fluorescence microscopy of gastrocnemius. It is filed as in vivo, C57BL/6 mice. To be noted: 10 mg/kg orally; 24 h after bupivacaine hydrochloride 0.5 w/v %, 0.1 ml; FIG. 1. How it is done:
Effect of an H-PGDS inhibitor to myolysis was tested using a myolysis model induced by bupivacaine hydrochloride which is an experimental model for muscular dystrophy (Nonaka I, et al., Acta Neuropathol., 60:167–174, 1983). Bupivacaine hydrochloride (0.5 w/v %, 0.1 ml) was injected into gastrocnemius of C57BL/6 mice (K. K. Oriental Bio Service) (eight weeks old; male) to induce myolysis and, after 24 hours, Evans' Blue dye solution (1.0 w/v %) was intravenously injected from tail vein. After 30 minutes, they were killed by excessive anesthetization and perfused with physiological saline solution, gastrocnemius was excised and quickly frozen. The cryosection was prepared and then accumulated Evans' Blue was observed under a fluorescent microscope. Necrotic legion was enhanced by means of fluorescence.

For `c1ccc(C(OC2CCN(CCCc3nnn[nH]3)CC2)c2ccccc2)cc1` [HQL-79, 4-benzhydryloxy-1-{3-(1H-tetrazol-5-yl)-propyl}piperidine], in experiment [1] (HQL-79 group of Example 1, formamide extraction, FIG. 2), the “incorporation of Evans' Blue into gastrocnemius (absorbance 630 nm)” value was “significantly decreased”. The “retention of Evans' Blue dye in muscle (index for myolysis)” value in experiment [2] was “decreased”. In experiment [3], the “region with specific CT values in laminogram of gastrocnemius” value is “decreased”. Besides, the “degenerated region by necrosis (Evans' Blue fluorescence)” value in experiment [4] is “degenerated region by necrosis became small”.

Consider `O=C(O)CCn1c2c(c3ccccc31)C[C@H](NS(=O)(=O)c1ccc(F)cc1)CC2` [ramatroban, (+)-(3R)-3-(4-fluorobenzenesulfonamide)-1,2,3,4-tetrahydrocarbazole-9-propionic acid], for which the “amount of Evans' Blue impregnated into the tissue (absorbance 630 nm)” value in experiment [1] (30 mg/kg orally, 1 h before and 18 h after bupivacaine hydrochloride 1 w/v %, 0.05 mL, read at 24 h, FIG. 6) was “lowered”.
